Laboratory results published in patent US8383168B2, “Antioxidant complex, cosmetic and pharmaceutical compositions containing said complex and use of said complex” (Natura Cosmeticos S.A., priority 2008, dated 2013).

Legend:
Format in all cases: biochemical
[1] = DPPH free radical neutralization; conditions: amount required to neutralize 50% of DPPH radicals
Source text: This methodology is used to assess the IC-50 value, i.e., the amount of active ingredient required to neutralize 50% of the radicals formed in the reaction medium.
This assay is used to assess the active ingredient's ability to decrease the formation of free radicals. A specific radical (DPPH) produces a purple coloring in ethanolic solution. Antioxidant active ingredients capable of donating protons (H^+) decrease the formation of radicals, consequently decreasing the purple coloring.

[2] = Lipoperoxidation (liposomes + AAPH, xylenol orange); conditions: for protection against lipoperoxidation: active ingredient alone, 100 μg/ml (0.01%), 3 hours of reaction
Source text: The methodologies selected for planning and carrying out the tests for the antioxidant efficacy of the complex of the present invention aimed at reproducing the protective effect of membranes (lipids), DNA and proteins, and were fast screening methodologies, such as: • DPPH: the test is based on the reduction reaction of the diphenyl picryl hydrazyl (DPPH) free radical in ethanolic medium, with the raw materials or substances to be analyzed, wherein the DPPH radical is reduced by said substances, altering the tone and enabling the antioxidant protection to be measured. This is a simple assay, commonly used for screening substances, since it measures one of the main mechanisms of antioxidant action—proton donation for stabilization of the DPPH radical. • Lipoperoxidation: in this test, phosphatidylcholine liposomes, which structure resembles the cell membrane since phosphatidylcholine is one of the lipid components of cell membranes, are incubated with the AAPH radical, which is capable of promoting the oxidation of these membranes, forming lipid hydroperoxides. These hydroperoxides promote the oxidation of Fe^2+ to Fe^3+, which reacts with xylenol orange, forming a yellowish compound. The active ingredients incubated with the liposomes decrease the membrane oxidation, consequently decreasing the reaction with xylenol orange and the formation of color. This test provides a result for the % protection against lipoperoxidation, and is closer to the physiological situation, since it mimics the attack to cell membranes. • Protein Oxidation: this experiment uses BSA (bovine serum albumine) as a substrate and a hydroxyl radical generating system (Fenton reaction: H2O2+ iron), which can generate hydroperoxides in the presence of the protein, due to the oxidation of the amino acid side chain. These hydroperoxides promote the oxidation of Fe2+ to Fe3+, which reacts with xylenol orange, forming a yellowish compound. […]

[3] = ORAC hydrophilic and lipophylic method; conditions: value printed for comparison with the samples
Experimental: The system comprises a generating substance of free radical, the AAPH (2,2′-azobis (2-amidinopropane)dihydrochloride) and a fluorescent marker, fluorescein. The antioxidant substance presence in the reaction medium inhibits the decline of the induced fluorescence by the free radical.
The final value is calculated by the regression equation between the sample concentration and the area under the decline curve of fluorescence (AUC). Being expressed the result in micromoles equivalent of Trolox®/g of the sample. AUC=1+f1/f0+f2/f0++f3/f0+ . . . +fn/f0 • f0: initial fluorescence t=0 minutes • fn: fluorescence in each sample in t=n minutes
Hexane (1 mg/mL) was added in the individual samples, the samples were agitated during 3 minutes in vortex and centrifuged during two minutes in 700 g. The supernatant was removed, evaporated under nitrogen flow and analyzed as lipophylic portion. The soil body was analyzed as hydrophilic fraction.
The latter was solubilized in acetone:water (50% v/v), mixed in the ratio indicated for each one of the mixtures and appropriately diluted in 75 nM phosphate buffer pH 7.0. […] The reading was made each minute for one hour with wave length of excitement 485/20 nm and emission 528/20 nm (reading of plates—Multi Detection microplate reader SynergyBIOTEK). […]

| SMILES | IC-50 (mg/ml) [1] | IC-50 (μg/ml) [1] | protection against lipoperoxidation [2] | concentration of the active ingredient in isolation required for protection similar to the mixture, relative to its concentration in the mixture ([2]; lipoperoxidation, between 60 and 70% protection, mixture 10+10+10 μg/ml) | antioxidant activity of comparator [3] |
| --- | --- | --- | --- | --- | --- |
| CC(C)=CCC/C(C)=C/C=C/C(C)=C/C=C/C(C)=C/C=C/C=C(C)/C=C/C=C(C)/C=C/C=C(\C)CCC=C(C)C [Lycopene] | 0.208 mg/mL | 208 µg/mL | 25.30% |  |  |
| Cc1c(C)c2c(c(C)c1O)CC[C@@](C)(CCC[C@H](C)CCC[C@H](C)CCCC(C)C)O2 [Tocopherol, alpha-tocopherol] | 0.019 mg/mL | 19 µg/mL | 95.53% | at least 5 times higher |  |
| Cc1c(C)c2c(c(C)c1O)CCC(C)(C(=O)O)O2 (centres unmarked) [Trolox®] |  |  |  |  | 400 µmol/g |
